Source: PubChem BioAssay (NCI)
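Tested at 5 concentrations; 48 h exposure; 96-well plates; endpoints linearly interpolated, else capped at highest concentration. GI50 marks 50% less growth. TGI: concentration producing complete growth inhibition.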

Key:
Assay in all cases: NCI anticancer screen, dose series, 48 h
MCF7 breast = system: MCF7 breast
MOLT-4 leukemia = system: MOLT-4 leukemia
RXF 393 renal = system: RXF 393 renal
MDA-MB-435 = system: MDA-MB-435
MDA-MB-231 breast = system: MDA-MB-231 breast
NCI-H226 lung = system: NCI-H226 lung
UO-31 renal = system: UO-31 renal
KM12 colon = system: KM12 colon
CAKI-1 renal = system: CAKI-1 renal
SNB-19 CNS = system: SNB-19 CNS
MALME-3M melanoma = system: MALME-3M melanoma
COLO 205 colon = system: COLO 205 colon
T-47D breast = system: T-47D breast
BT-549 breast = system: BT-549 breast
U251 CNS = system: U251 CNS
786-0 renal = system: 786-0 renal
M14 melanoma = system: M14 melanoma
RPMI-8226 leukemia = system: RPMI-8226 leukemia
SF-539 CNS = system: SF-539 CNS
UACC-257 melanoma = system: UACC-257 melanoma
NCI-H522 lung = system: NCI-H522 lung
SK-MEL-5 melanoma = system: SK-MEL-5 melanoma
NCI-H460 lung = system: NCI-H460 lung
UACC-62 melanoma = system: UACC-62 melanoma
LOX IMVI melanoma = system: LOX IMVI melanoma
A549 NSCLC = system: A549 NSCLC
SK-OV-3 ovarian = system: SK-OV-3 ovarian
SF-295 CNS = system: SF-295 CNS
SF-268 CNS = system: SF-268 CNS
HCT-116 colon = system: HCT-116 colon
K-562 leukemia = system: K-562 leukemia
OVCAR-3 ovarian = system: OVCAR-3 ovarian
SW-620 colon = system: SW-620 colon
HOP-62 NSCLC = system: HOP-62 NSCLC
IGROV1 ovarian = system: IGROV1 ovarian
HCT-15 colon = system: HCT-15 colon
PC-3 prostate = system: PC-3 prostate
TK-10 renal = system: TK-10 renal
SK-MEL-28 melanoma = system: SK-MEL-28 melanoma
SR leukemia = system: SR leukemia
HOP-92 NSCLC = system: HOP-92 NSCLC
HT29 colon = system: HT29 colon
OVCAR-5 ovarian = system: OVCAR-5 ovarian
EKVX NSCLC = system: EKVX NSCLC
NCI-H23 lung = system: NCI-H23 lung
NCI/ADR-RES ovarian = system: NCI/ADR-RES ovarian
SK-MEL-2 melanoma = system: SK-MEL-2 melanoma
A498 renal = system: A498 renal
OVCAR-4 ovarian = system: OVCAR-4 ovarian
HL-60(TB) leukemia = system: HL-60(TB) leukemia
SN12C renal = system: SN12C renal
DU-145 prostate = system: DU-145 prostate
HS 578T breast = system: HS 578T breast
HCC-2998 colon = system: HCC-2998 colon
CCRF-CEM leukemia = system: CCRF-CEM leukemia
SNB-75 CNS = system: SNB-75 CNS
ACHN renal = system: ACHN renal

## COC1=C(OC)C(=O)C(CCCCCCCCCC[P+](c2ccccc2)(c2ccccc2)c2ccccc2)=C(C)C1=O
MCF7 breast
  GI50: 42 nM
  TGI: 532 nM
MOLT-4 leukemia
  GI50: 376 nM
  TGI: 7780 nM
RXF 393 renal
  GI50: 293 nM
  TGI: 10700 nM
MDA-MB-435
  GI50: 193 nM
  TGI: 1280 nM
MDA-MB-231 breast
  GI50: 265 nM
  TGI: 1480 nM
NCI-H226 lung
  GI50: 284 nM
  TGI: 915 nM
UO-31 renal
  GI50: 1670 nM
  TGI: 3430 nM
KM12 colon
  GI50: 145 nM
  TGI: 884 nM
CAKI-1 renal
  GI50: 853 nM
  TGI: 3270 nM
SNB-19 CNS
  GI50: 125 nM
  TGI: 1300 nM
MALME-3M melanoma
  GI50: 206 nM
  TGI: 908 nM
COLO 205 colon
  GI50: 99.9 nM
  TGI: 279 nM
T-47D breast
  GI50: 48.1 nM
  TGI: 1040 nM
BT-549 breast
  GI50: 249 nM
  TGI: 1090 nM
U251 CNS
  GI50: 104 nM
  TGI: 1170 nM
786-0 renal
  GI50: 269 nM
  TGI: 530 nM
M14 melanoma
  GI50: 366 nM
  TGI: 1700 nM
RPMI-8226 leukemia
  GI50: 24.7 nM
  TGI: 143 nM
SF-539 CNS
  GI50: 256 nM
  TGI: 1280 nM
UACC-257 melanoma
  GI50: 150 nM
  TGI: 931 nM
NCI-H522 lung
  GI50: 170 nM
  TGI: 795 nM
SK-MEL-5 melanoma
  GI50: 71.3 nM
  TGI: 222 nM
NCI-H460 lung
  GI50: 266 nM
  TGI: 1160 nM
UACC-62 melanoma
  GI50: 312 nM
  TGI: 1730 nM
LOX IMVI melanoma
  GI50: 299 nM
  TGI: 1550 nM
A549 NSCLC
  GI50: 337 nM
  TGI: 5140 nM
SK-OV-3 ovarian
  GI50: 255 nM
  TGI: 869 nM
SF-295 CNS
  GI50: 189 nM
  TGI: 585 nM
SF-268 CNS
  GI50: 345 nM
  TGI: 1440 nM
HCT-116 colon
  GI50: 135 nM
  TGI: 329 nM
K-562 leukemia
  GI50: 244 nM
OVCAR-3 ovarian
  GI50: 219 nM
  TGI: 1100 nM
SW-620 colon
  GI50: 334 nM
  TGI: 4910 nM
HOP-62 NSCLC
  GI50: 194 nM
  TGI: 491 nM
IGROV1 ovarian
  GI50: 187 nM
  TGI: 1870 nM
HCT-15 colon
  GI50: 1330 nM
  TGI: 3460 nM
PC-3 prostate
  GI50: 130 nM
  TGI: 4040 nM
TK-10 renal
  GI50: 303 nM
  TGI: 1380 nM
SK-MEL-28 melanoma
  GI50: 475 nM
  TGI: 2170 nM
SR leukemia
  GI50: > 100000 nM
  TGI: > 100000 nM
HOP-92 NSCLC
  GI50: 97.7 nM
  TGI: 504 nM
HT29 colon
  GI50: 194 nM
  TGI: 1050 nM
OVCAR-5 ovarian
  GI50: 361 nM
  TGI: 1410 nM
EKVX NSCLC
  GI50: 137 nM
  TGI: 4740 nM
NCI-H23 lung
  GI50: 160 nM
  TGI: 930 nM
NCI/ADR-RES ovarian
  GI50: 3130 nM
  TGI: 20300 nM
SK-MEL-2 melanoma
  GI50: 744 nM
  TGI: 3510 nM
A498 renal
  GI50: 371 nM
  TGI: 1790 nM
OVCAR-4 ovarian
  GI50: 166 nM
  TGI: 2860 nM
HL-60(TB) leukemia
  GI50: 59.8 nM
  TGI: 409 nM
SN12C renal
  GI50: 213 nM
  TGI: 1320 nM
DU-145 prostate
  GI50: 351 nM
  TGI: 1730 nM
HS 578T breast
  GI50: 204 nM
  TGI: 1620 nM
HCC-2998 colon
  GI50: 247 nM
  TGI: 1380 nM
CCRF-CEM leukemia
  GI50: 107 nM
  TGI: 1180 nM
SNB-75 CNS
  GI50: 211 nM
  TGI: 925 nM
ACHN renal
  GI50: 1070 nM
  TGI: 3720 nM
